Reference: US4558060A, “Benzoxazolinones” (Riom Laboratories - Cerm S.A., priority 1982, dated 1985)
Structures can show the parent of a compound that is named as a salt. Where two headings read alike, the source gives them in different places.

How the values were obtained:
dogs = assay: Pentobarbital-induced heart failure in anaesthetized dogs, intraduodenal administration; format: in vivo; conditions: 1 mg/kg I.D.; for Aortic capacity / Bradycardia and hypotension induced by pentobarbital / Inotropic effect: after 20 minutes
Excerpt: In addition to the activity pattern described above the compounds of formula I, in which R1 and R2 both represent hydrogen have a particularly beneficial effect in the treatment of heart failure. The latter activity has been tested using a technique derived from Deitchman and Snyder, Arch.Int. Pharmacodyn. 250, 65 (1981).
After having been anaesthesized dogs under articicial respiration are connected with pieces of apparatus for continuous monitoring the left intraventicular pressure, the dP/dt max, the amplitude of the left ventricular contraction, the aortic capacity, the heart frequency and the arteric pressure.
Heart failure is induced by intravenous administration of pentobarbital at a dose of 20 mg per kg body weight per minute until a decrease of 50% of dP/dt max is obtained after which this level is maintained by pentobarbital administration at a dose of 0.4 mg/kg/min. Ten minutes after the beginning of this heart failure effect the products to be tested are administered. The results are compared with those obtained using Dopamine and Dobutamine as reference compounds.
Then the test was repeated by administering the products intraduodenally (I.D.). Dopamine and Dobutamine were administered at a dose of 10 mg/kg I.D. and the compounds of the invention at a dose of 1 mg/kg.

[1] = Acute toxicity (mortality after 24 hours); conditions: mouse, in vivo, po
Experimental: (§1) The acute toxicity and central nervous system activity of the compounds of the invention were investigated in mice using various test-models. These tests were carried out in accordance with the procedures summarised below.
Male mice of the OF1, IFFA, CREDO strain and having an average weight of 22±1 g, receive, by oesophagial intubation, a solution of arabic gum and distilled water (1/2-1/2) containing the compound to be studied, at a rate of 0.25 ml per 20 g of body weight. The symptomatology of the intoxication was observed and the mortality was recorded after 24 hours.

mice [2] = assay: Spontaneous motility; format: in vivo; conditions: Mus musculus, 20 min, read-out: Spontaneous motility, variation; for change in vivo at 25 mg/kg: dose 25 mg.kg^-1
Experimental: as §1
Groups of 4 mice prepared as above are placed in circular corridors intersected by infrared beams, making it possible to count the number of movements made by the animals. The number of movements is summed up after 20 minutes and the results are expressed as the percentage variation relative to the group of control animals, which have only received the vehicle (gum arabic/water).

mice [3] = assay: Hypnotic activity (sleep induction time, sleep time); format: in vivo
Experimental: as §1
Mice receive, by intraperitoneal administration, 0.25 ml per 20 g of body weight of a solution consisting of arabic gum and of 0.154M NaCl solution (1/2-1/2) containing 12.5 mg.kg.^-1 of the compound to be studied, and the "sleep induction time"--the time taken for the loss of righting reflex to appear after the animal has been placed in the dorsal decubitus position--and the "sleep time"--the duration of the above loss of reflex--are then noted. For this test, pentobarbital is given as a reference, administered at a dose of 50 mg.kg.^-1.

[4] = dose 50 mg.kg^-1, relative to control animals, 20 minutes
[5] = mice, oesophagial intubation, mortality after 24 hours, read-out: Estimated LD 50
[6] = relative to control animals, 20 minutes
[7] = pentobarbital reference, 50 mg.kg^-1

In the case of `Cn1c(=O)oc2cc(CCN)ccc21` [Compound 2, 3-Methyl-6-(2-aminoethyl)-benzoxazolinone(hydrochloride)], the “Duration of the effects” value (dogs) was “at least 60 minutes”, the Aortic capacity (dogs) was “increase of the aortic capacity” and the “Bradycardia and hypotension induced by pentobarbital” value (dogs) was “recovery of the bradycardia and the hypotension induced by pentobarbital”. The Inotropic effect (dogs) was “strong positive inotropic effect”.
Compound `Cn1c(=O)oc2cc(CCN3CCN(c4cccc(C(F)(F)F)c4)CC3)ccc21` [Compound 3] has an LD50 at 24 h [1] of 1000 mg/kg and a change in vivo at 50 mg/kg (mice [2]; [4]) of -97.5%.
`Cn1c(=O)oc2cc(CCN3CCOCC3)ccc21` [Compound 4] gave an LD50 at 24 h [1, 5] of 1200 mg/kg and a change in vivo at 12.5 mg/kg (mice [2]; dose 12.5 mg.kg^-1, relative to control animals, 20 minutes) of -11.9%.
In the case of `Cn1c(=O)oc2cc(CCN3CCN(c4ncccn4)CC3)ccc21` [Compound 7], the LD50 at 24 h [1] was 1200 mg/kg and the change in vivo at 50 mg/kg (mice [2]; [4]) was -69.9%.
With `O=c1[nH]c2ccc(CCN3CCN(c4cccc(C(F)(F)F)c4)CC3)cc2o1` [Compound 8] the LD50 at 24 h [1] was 1000 mg/kg and the change in vivo at 25 mg/kg (mice [2]; [6]) was -93.5%.
With `COc1ccccc1N1CCN(CCc2ccc3c(c2)oc(=O)n3C)CC1` [Compound 9, 3-Methyl-6-(2-[4-(2-methoxyphenyl)-piperazin-1-yl]-ethyl)-benzoxazolinone] the LD50 at 24 h [1, 5] was 600 mg/kg, the change in vivo at 6.25 mg/kg (mice [2]) was -93.2% and the “Hypnotic activity, sleep induction time” value (mice [3]; 12.5 mg.kg^-1, intraperitoneal) was 18 ± 7.5 min. The “Hypnotic activity, sleep time” value (mice [3]; 12.5 mg.kg^-1, intraperitoneal) was 46.2 ± 15 min.
For `COc1ccccc1N1CCN(CCc2ccc3[nH]c(=O)oc3c2)CC1` [Compound 10, 6-(2-[4-(2-methoxyphenyl)-piperazin-1-yl]-ethyl)-benzoxazolinone], the LD50 at 24 h [1, 5] was 1000 mg/kg, the change in vivo at 6.25 mg/kg (mice [2]) was -99.3% and the “Hypnotic activity, sleep induction time” value (mice [3]; 12.5 mg.kg^-1, intraperitoneal) was 18.2 ± 4.3 min. The “Hypnotic activity, sleep time” value (mice [3]; 12.5 mg.kg^-1, intraperitoneal) was 86 ± 15 min.
`CNCCc1ccc2[nH]c(=O)oc2c1` [Compound 12] showed an LD50 at 24 h [1, 5] of 1200 mg/kg and a change in vivo at 50 mg/kg (mice [2]) of -28%.
In the case of `NCCc1ccc2[nH]c(=O)oc2c1` [Compound 15], the LD50 at 24 h [1, 5] was 1200 mg/kg, the change in vivo at 50 mg/kg (mice [2]) was -23.2% and the Aortic capacity (dogs) was “increase of the aortic capacity”. The “Bradycardia and hypotension induced by pentobarbital” value (dogs) was “recovery of the bradycardia and the hypotension induced by pentobarbital” and the Inotropic effect (dogs) was “strong positive inotropic effect”.
With `Cn1c(=O)oc2cc(CCNC3CC3)ccc21` [Compound 16] the LD50 at 24 h [1, 5] was 600 mg/kg and the change in vivo at 50 mg/kg (mice [2]) was -34.4%.
Work on `O=c1[nH]c2ccc(CCN3CCN(c4ncccn4)CC3)cc2o1` [Compound 17] yielded an LD50 at 24 h [1] of 480 mg/kg and a change in vivo at 25 mg/kg (mice [2]; [6]) of -62.8%.
In the case of `Cn1c(=O)oc2cc(CCN3CCN(c4ccc(F)cc4)CC3)ccc21` [Compound 18, 3-Methyl-6-(-[4-(4-fluorophenyl)-piperazin-1-yl]-ethyl)-benzoxazolinone], the LD50 at 24 h [1, 5] was 1000 mg/kg, the change in vivo at 6.25 mg/kg (mice [2]) was -98.8% and the “Hypnotic activity, sleep induction time” value (mice [3]; 12.5 mg.kg^-1, intraperitoneal) was 26.9 ± 6 min. The “Hypnotic activity, sleep time” value (mice [3]; 12.5 mg.kg^-1, intraperitoneal) was 132 ± 25 min.
With `O=c1[nH]c2ccc(CCN3CCN(c4ccc(F)cc4)CC3)cc2o1` [Compound 19] the LD50 at 24 h [1, 5] was 1000 mg/kg, the change in vivo at 6.25 mg/kg (mice [2]) was -97% and the “Hypnotic activity (in words)” value (mice [3]; 12.5 mg.kg^-1, intraperitoneal) was “strong hypnotic activity”. For the same compound, the “Hypnotic activity, sleep induction time” value (mice [3]; 12.5 mg.kg^-1, intraperitoneal) was 15.1 ± 2 min and the “Hypnotic activity, sleep time” value (mice [3]; 12.5 mg.kg^-1, intraperitoneal) was 78 ± 16 min.
In the case of `CCCC(C)C1(CC)C(=O)NC(=O)NC1=O` (stereo not drawn) [pentobarbital, reference compound], the “Hypnotic activity, sleep induction time (reference)” value (mice [3]; [7]) was 9.5 ± 2.2 min and the “Hypnotic activity, sleep time (reference)” value (mice [3]; [7]) was 48 ± 7 min.
